The text below walks through data of US20100273650A1, “Fungicidal Mixtures Comprising a Substituted 3-Hydroxymethylpyridine and a Further Fungicidal Compound” (BASF SE, priority 2007, published 2010).

Where two headings read alike, the source gives them in different places.

Common to all, as to type: cell-based
One experiment deals with Phytophthora infestans. Briefly: microbe, parasite or virus in culture. As to conditions: 168 h, read-out: Observed efficacy.
The subject of another experiment is Septoria tritici. Nature of the experiment: Activity against leaf blotch on wheat caused by Septoria tritici in the microtiter test (Septtr). As to conditions: single active compound, 405 nm, day 7 after inoculation.
The test system of the next experiment is Pyricularia oryzae. As to conditions: single active compound, 405 nm, 7 days after inoculation.

`N#Cc1c(Cl)c(Cl)c(Cl)c(C#N)c1Cl` [Chlorothalonil, 2,4,5,6-tetrachloroisophthalonitrile]: the inhibition of growth at 0.25 ppm in the experiment with Phytophthora infestans was determined as 10%.

The compound `CC(C)(C)C(O)(CCc1ccc(Cl)cc1)Cn1cncn1` (stereo not drawn) [Tebuconazol, 1-(4-chlorophenyl)-4,4-dimethyl-3-[1,2,4]triazol-1-ylmethylpentan-3-ol] had an Observed efficacy in the experiment on Septoria tritici (0.25 ppm) of 63%.

Consider `CNC(=O)/C(=N/OC)c1ccccc1COc1cc(C)ccc1C` [Dimoxystrobin, (E)-2-(methoxyimino)-N-methyl-2-[α-(2,5-xylyloxy)-o-tolyl]acetamide], for which the inhibition of growth at 0.25 ppm in the experiment on Phytophthora infestans was found to be 42%.

Consider `Cc1ccc(C(C)NC(=O)[C@@H](NC(=O)OC(C)C)C(C)C)cc1` (stereo partly drawn) [Iprovalicarb, isopropyl [(1S)-2-methyl-1-(1-p-tolylethylcarbamoyl)propyl]carbamate], for which the inhibition of growth at 1 ppm in the experiment with Phytophthora infestans is 66%.

“zinc propylenebis(dithiocarbamate) polymer [Propineb]” gave an Observed efficacy in the experiment with Pyricularia oryzae (1 ppm) of 23%.

Regarding `CC(Cc1ccc(C(C)(C)C)cc1)CN1C[C@@H](C)O[C@@H](C)C1` (mixture of isomers) [Fenpropimorph, (RS)-cis-4-[3-(4-tert-butylphenyl)-2-methylpropyl]-2,6-dimethylmorpholine], the Observed efficacy with Septoria tritici (1 ppm) is given as 9%.

In turn, `COC(=O)Nc1nc2ccccc2[nH]1` [Carbendazim, methyl (1H-benzoimidazol-2-yl)-carbamate] showed an Observed efficacy in the experiment on Pyricularia oryzae (0.25 ppm) of 24%.

Turning to `OC(Cc1ccccc1Cl)(Cn1nc[nH]c1=S)C1(Cl)CC1` (stereo not drawn) [Prothioconazole, 2-[2-(1-chlorocyclopropyl)-3-(2-chlorophenyl)-2-hydroxypropyl]-2,4-dihydro-[1,2,4]triazole-3-thione], in the experiment on Phytophthora infestans, the inhibition of growth at 16 ppm turned out to be 22%.

With `CCCCCCCCc1c(CC)nc2ncnn2c1N` [5-ethyl-6-octyl-[1,2,4]triazolo[1,5-a]pyrimidine-7-ylamine], the inhibition of growth at 0.25 ppm in the experiment on Phytophthora infestans was 29%.

Turning to `OC(c1cccnc1)c1c(-c2ccc(F)cc2F)csc1-c1ccc(F)cc1F` (stereo not drawn) [I.16, 2,4-Bis-(2,4-Difluorophenyl)-3-[(3-pyridyl)hydroxymethyl]thiophene], in the experiment on Phytophthora infestans, the inhibition of growth at 1 ppm stood at 0%. The same compound came in with an Observed efficacy in the experiment with Pyricularia oryzae (1 ppm) of 0%.

For `OC(c1cccnc1)c1c(-c2ccc(Cl)cc2)csc1-c1ccc(Cl)cc1` (stereo not drawn) [I.8, 2,4-Bis-(4-chlorophenyl)-3-[(3-pyridyl)hydroxymethyl]thiophene], the Observed efficacy in the experiment on Septoria tritici (0.063 ppm) is 4%; with Septoria tritici (0.25 ppm) it was 10%; in the experiment with Pyricularia oryzae (0.25 ppm), 2%; in the experiment with Pyricularia oryzae (1 ppm) it was 0%. Besides, the inhibition of growth at 0.063 ppm in the experiment on Phytophthora infestans is 2%. Also, the inhibition of growth at 0.25 ppm in the experiment on Phytophthora infestans was found to be 1%. Also, the inhibition of growth at 1 ppm in the experiment with Phytophthora infestans is 4%. Moreover, in the experiment on Phytophthora infestans, the inhibition of growth at 4 ppm amounted to 19%.

In turn, `CCCCCCCCCCCCCN1CC(C)OC(C)C1` (stereo not drawn) [Tridemorph, 2,6-dimethyl-4-tridecylmorpholine] displayed an Observed efficacy in the experiment on Septoria tritici (1 ppm) of 3%.

For `O=C1C2CC=CCC2C(=O)N1SC(Cl)(Cl)Cl` (stereo not drawn) [Captan, 2-trichloromethylsulfanyl-3a,4,7,7a-tetrahydroisoindole-1,3-dione], the inhibition of growth at 1 ppm with Phytophthora infestans was determined as 26%.
